From the NIST ThermoML archive (doi:10.1021/acs.jced.7b00083) come the findings set out here.

± gives the expanded uncertainty stated by the source.

The nature of the data set: molar enthalpy of vaporization or sublimation. The settings on record: 298.15 K; Crystal; Static calorimetry.

Take `S=C1NCCN1` [imidazolidine-2-thione]: the molar enthalpy came out at 25.7 ± 0.359 kcal/mol.
